Article PMC12703741, “Light-Activated Metal-Dependent Protein Degradation: A Heterobifunctional Ruthenium(II) Photosensitizer Targeting New Delhi Metallo-β-lactamase 1” (Journal of the American Chemical Society, 2025)
Several values for one entry are separate records, joined by “and”; a condition that tells them apart may be missing. Identical values can stand only once. Entries after “also recorded” stand apart in the source; their conditions may differ. Like-named read-outs stand apart in the source and are kept apart here.

Legend:
[1] = tested on: E. coli NDM-1
Protocol: (§1) In parallel, a control set was incubated without compounds for 50 min, followed by incubation with 75 μM meropenem trihydrate for 10 min. Cells were then pelleted, washed, resuspended in water, lysed, and clarified before LC-MS analysis.
(§2) 1.12 LC-MS accumulation assay
(§3) 1.12.1 Bacterial Strains and Growth Conditions:
(§4) Accumulation assay was performed two E. coli K-12 MG1655 strains transfected with pSU18 vector containing NDM-1 expression or an empty vector control. Cell growth was performed in Luria-Bertani (LB) broth (NaCl 10g/L, K2HPO4 6.3 g/L, KH2PO4 1.8 g/L, sodium citrate […]
(§5) 1.12.2 Preparation of Accumulation Assay Samples for LC-MS Analysis:
(§6) Assay was adapted from the work of Geddes et al. and Widya et al.9–11 E. coli MG1655 pSU18 NDM-1 and pSU18 Empty were grown from single colonies at 37 °C with aeration, while shaking at 180 rpm for 18 hours. The overnight suspensions were subcultured (1:100) in fresh LB and incubated to yield an OD600 of 0.55-0.60. The were harvested and pelleted at 3500 × g for 15 minutes at 4 °C. The pellets were washed with Meuller -Hinton II (MHII) broth and pelleted again under the same conditions. The pellets were resuspended in a n adjusted volume of fresh MHII to achieve an OD 600 ≈ 10.0. Shielded from ambient light, cells were incubated with 320 μM of metal complex for 1 hour while shaking at 180 rpm. Separately, another set of cells was incubated under identical conditions without any added metal complex. Cells […]
(§7) incubated with metal complex were maintained incubating under the same conditions for an additional 10 minutes, while the second set of cells was incubated with 75 μM of meropenem trihydrate for 10 minutes. After treatment, 10 μL of each cell suspension was taken and dilution 1:10 PBSA for OD600 viability analysis. A 150 μL aliquot of each cell suspension was layered onto 150 μL of cold silicone oil mixture (1:9, v/v AR20:High temperature silicone oil) and centrifuged at 3500 × g for 1 hour at 4 °C. The aqu eous and oil supernatant were carefully aspirated to isolate the cell pellets, which were resuspended in 50 μL of water and transferred to a fresh microplate. For lysis, a 1:1 (v/v) mixture of acetonitrile and methanol was added to each sample, and the sam ples were freeze thawed at -80 °C for approximately 18 hours.
(§8) Thawed samples were clarified by two rounds of centrifugation at 3500 × g for 1 hour at 4 °C, […]
(§9) External calibration curves were prepared by mixing compound at increasing concentration with extracted cell lysate (prepared in parallel to analyte containing samples) in concentrations […]
(§10) nM were also prepared to assess quantitative accuracy. Samples were submitted to LCMS analysis as biological triplicate using a single calibration curve. […]
(§11) was spiked into each calibration and analyte sampl e as an internal standard.

[2] = tested on: E. coli empty
Protocol: as §1, §2, §3, §4, §5, §6, §7, §8, §9, §10, §11

[3] = target: T1, NDM-1 in E. coli NDM-1 (Klebsiella pneumoniae, UniProt C7C422); details: E. coli NDM-1, 450 nm, 60 J cm^-2
T1 sequence (C7C422 29-270 limits assumed): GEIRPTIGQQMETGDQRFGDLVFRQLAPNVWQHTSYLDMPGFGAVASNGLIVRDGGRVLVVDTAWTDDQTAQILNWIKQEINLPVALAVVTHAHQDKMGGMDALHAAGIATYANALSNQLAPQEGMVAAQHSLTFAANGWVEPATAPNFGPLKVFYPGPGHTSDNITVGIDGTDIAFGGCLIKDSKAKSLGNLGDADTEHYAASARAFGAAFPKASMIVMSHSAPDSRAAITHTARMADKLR
Protocol: (§12) shaking at 180 rpm for 18 hours. The overnight suspensions were subcultured (1:100) in fresh LB and incubated to yield an OD600 of 0.55-0.60. The were harvested and pelleted at 3500  g for 15 minutes at 4 °C. The pellets were washed with PBS and pelleted again under the same
(§13) conditions. The bacteria were then stored as pellets at 4 C until required for the assay and to
(§14) be used within 5 hours. To prepare the bacteria fo r the assay, a pellet was resuspended in an
(§15) adjusted volume of fresh PBS to achieve an OD600 ≈ 5.0 and then kept at 4 C for 1 hr before
(§16) being used. The bacteria were then diluted to OD600 ≈ 2.0 in fresh PBS and used immediately.
(§17) inhibitor control, and one row of Bacteria Buffer B (50 µL) which served as a no-bacteria
(§18) control (providing five rows in total). Bacteria stock (OD600 ≈ 2.0, 40 µL, final concentration
(§19) of bacteria in well = OD600 ≈ 0.8) was added to each well of the first four rows, the plate was
(§20) sealed, and the samples then pre-incubated for 60 min under either ‘dark’ or ‘light’ conditions
(§21) Under ‘dark’ conditions, the plate was left sealed in a
(§22) substrate in well = 100 µM) was conducted manually and then the plate immediately resealed
(§23) substrate had been completely consumed. Method conditions are as follows: cycle time = 100

[4] = tested on: HeLa
[5] = target: T2, NDM-1 (Klebsiella pneumoniae, UniProt C7C422); details: for Effect on melting temperature of NDM-1: in words
T2 sequence (C7C422 31-270 limits assumed): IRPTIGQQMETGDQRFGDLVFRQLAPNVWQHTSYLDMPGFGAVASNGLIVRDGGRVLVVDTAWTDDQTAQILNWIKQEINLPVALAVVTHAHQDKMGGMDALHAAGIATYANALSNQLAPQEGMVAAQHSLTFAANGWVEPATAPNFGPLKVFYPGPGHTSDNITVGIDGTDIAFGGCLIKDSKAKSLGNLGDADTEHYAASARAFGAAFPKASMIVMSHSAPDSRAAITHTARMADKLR
Protocol: (§24) 1.4.1 Differential Scanning Fluorimetry (DSF)
(§25) DSF was performed using the Applied Biosystems QuantStudio 5 thermal cycler (Thermo
(§26) Fisher Scientific). Results were analysed and Tm determined with the Applied Biosystems
(§27) Protein Thermal Shift Software v1.4 and Tm values determined by the software. DSF was
(§28) conducted in sealed MicroAmp Optical 384-Well Reaction Plates (Thermo Fisher Scientific).
(§29) at a temperature ramp rate of 0.03 °C/s. For compound-protein interaction studies, a final
(§30) containing 5X SYPRO Orange (Thermo Fisher Scientific), 50 mM HEPES and 5%(v/v)
(§31) DMSO-d6. The final reaction volume was 20 µL per well. All DMSO compound stocks used
(§32) for DSF experiments were freshly prepared from solid stocks. All DSF measurements were
(§33) carried out in triplicate and the Tm reported is the mean value and the error is the standard
(§34) deviation. For all compounds tested, a no protein control run was included to see potential
(§35) changes in fluorescence resulting from a compound-dye interaction.

[6] = tested on: RAW264.7; details: RAW
[7] = tested on: seven mammalian cell lines; details: panel of seven mammalian cell lines including HepG2
[8] = target: T1, NDM-1 in E. coli NDM-1; assay: cell-based; details: E. coli NDM-1, nitrocefin
Protocol: as §12, §13, §14, §15, §16, §17, §18, §19, §20, §21, §22, §23

[9] = target: T2, NDM-1; assay: biochemical
Protocol: as §24, §25, §26, §27, §28, §29, §30, §31, §32, §33, §34, §35

[10] = tested on: HepG2
[11] = target: HDAC1 (Homo sapiens, UniProt Q13547); assay: HDAC1 deacetylation assay (H3K9Ac, mass spectrometry); details: 100 µM compound, 3 hours, 37°C
Chain of HDAC1 (Q13547 whole entry, species assumed): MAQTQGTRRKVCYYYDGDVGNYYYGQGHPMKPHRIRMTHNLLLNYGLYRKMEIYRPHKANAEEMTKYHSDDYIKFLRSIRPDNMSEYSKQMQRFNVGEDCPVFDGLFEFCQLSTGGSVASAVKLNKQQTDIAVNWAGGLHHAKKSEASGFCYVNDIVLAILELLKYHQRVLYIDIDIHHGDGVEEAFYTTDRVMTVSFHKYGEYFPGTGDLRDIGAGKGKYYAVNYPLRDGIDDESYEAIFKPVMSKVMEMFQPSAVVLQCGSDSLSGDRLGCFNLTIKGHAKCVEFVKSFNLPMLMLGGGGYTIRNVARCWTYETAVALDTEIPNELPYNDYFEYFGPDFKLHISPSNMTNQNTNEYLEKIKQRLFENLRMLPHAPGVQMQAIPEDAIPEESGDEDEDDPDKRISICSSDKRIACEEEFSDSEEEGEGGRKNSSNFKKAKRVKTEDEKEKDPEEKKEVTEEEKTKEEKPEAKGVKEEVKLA
Protocol: 1.7.1 HDAC1 Assay conditions:
The results of the assay were analysed using HRMS.
HDAC1 was included (-HDAC1).

[12] = target: T2, NDM-1; assay: biochemical; details: recombinant NDM-1, nitrocefin
[13] = target: T2, NDM-1; details: 450 nm, 20 J cm^-2
[14] = tested on: HCT116
[15] = Chromatographic LogD measurement; details: reversed-phase HPLC, Eclipse Plus C18 column, pH 7.4
Protocol: ChromLogD measurements were adapted from a previously reported procedure.3 The reversed
phase HPLC measurements were measured using an Agilent 1100 Series, equipped with an
Eclipse Plus C18 column 4.6 x 50 mm, using a gradient of 50 mM ammonium acetate/CH3CN
0 – 100% over 10 min. The mobile phase was adjusted to pH = 7.4 using concentrated sodium
The retention times (log k’) of seven commercially available compounds which cover the log
D range from -0.02 to 3.18 (theophylline, 5-phenyl-1H-tetrazole, benzimidazole, colchicine,
acetophenone, indole, propiophenone, butyrophenone, and benzophenone) were calculated
using the below equation, where tR is the retention time of the compound and t0 is the column
dead time, measured by injecting uracil (0.853 min).
The average retention times (tR) of two consecutive injections of sample were used to calculate
the log k’ values, which were then used to create the standard curve (Figure S1).

[16] = tested on: E. coli NDM-1; remark: listed apart in the source
Protocol: based screening experiments were performed in biological triplicate, each replicate starting
from a new single colony inoculation. Statistical significance was determined using two-way
ANOVA followed by Sidak’s multiple comparison test, with a single pooled variance.
Concentration (MIC) assay
20% glycerol stocks of E. coli MG1655 pSU18 NDM-1 (E. coli NDM-1) and E. coli MG1655
pSU18 empty (E. coli empty) stored at -80 °C were used to streak nutrient agar plates. After
The MHBII culture growing both E. coli strains contained chloramphenicol
as an antibiotic resistance marker (2 µg/mL, equivalent to ¼ MICE. coli for chloramphenicol =
8 µg/mL). The resulting suspensions were each diluted 100 x (15 µL in 1.5 mL) in MHBII with
chloramphenicol (2 µg/mL), and the resultant suspensions were incubated to OD600 = 0.6-1.2
To generate the two-dimensional drug interaction matrix, four 96-well source plates were
prepared. In Source Plates A1-3, the three analytes were subjected to a two-fold serial dilution
across the rows (A to G), maintaining constant concentrations within each row and achieving
a vertical concentration gradient. In parallel, Source Plate B was prepared by diluting
meropenem in a two-fold series across the Columns (9 to 2), generating a horizontal
concentration gradient across the plate. Equal volumes (1 µL) from one of the source plates A
and source plate B were transferred into a 96-well assay plate to establish the checkerboard
layout with a 50X dilution into MHBII (50 μL total volume).
The prepared bacterial cells were diluted to OD600 = 0.01. Each prepared checkerboard plate
was then inoculated with 50 μL per well of bacterial culture in MHBII with ½ MIC of
chloramphenicol (100 μL total volume per well , final OD600 = 0.005). Control wells were
included to account for drug-free growth, sterility, and single-agent gradient exposures. Dark
For the light condition, the
OD600 was measured on a BMG Labtech CLARIOstar plate reader. The MIC is the first value
at which no growth is seen. All E. coli NDM-1 data were averaged from 3 biological replicates,

[17] = tested on: HEK293T
[18] = tested on: hTERT RPE-1
[19] = tested on: HaCaT
[20] = organic photosensitizers; cited from earlier work
[21] = target: T2, NDM-1; type: biochemical; details: mixture of NDM-1 and BSA, 0-1000 μM
Protocol: 1.8 Protein degradation via SDS-PAGE […]
were made at 10 mM in DMSO and then diluted to the appropriate concentration (1 mM – 10 µM) in 50 mM HEPES pH 7.5. The enzyme stocks (10 µM) were made up in 50 mM HEPES pH 7.5. The compound and enzyme stocks were mixed 1:1 and then pre -incubated for 10 min […]
‘light’ conditions the samples were transferred to a 96 well plate to provide irradiation. For a […]
(208 s, 96 mW cm-2). For a dose of 60 J cm-2 the plate was irradiated immediately (624 s, 96 […]
An aliquot of each sample was mixed with SDS-sample buffer (NuPAGE® LDS Sample buffer 4x) and heated to 95°C for 3 min. The samples were loaded on to the gel (NuPAGE® 4-12% Bis-tris gel) and run at 200V/125 mA for 30 min (1 gel per Gel box) or 60 min (2 gels per Gel box). SDS-PAGE gels were imaged using a Cytiva Amersham ImageQuant™ 800.
Densitometry of gel bands was measured and processed using Fiji (ImageJ).
1.8.3 BSA+NDM-1 selectivity experiment […]
nm, 20 J cm-2). Lane 1: Ladder; Lane 2: NDM-1 – no compound control (dark); Lane 3: BSA – no compound control (dark); Lane 4: NDM-1 + BSA - no compound control (dark); Lane 5: NDM-1 + BSA + 1 eq. compound (dark); Lane 6: NDM-1 + BSA + 10 eq. compound (dark); Lane 7: NDM-1 + BSA + 100 eq. compound (dark); Lane 8: NDM-1 + BSA - no compound control (light); Lane 9: NDM-1 + BSA + 1 eq. compound (light); Lane 10: NDM-1 + BSA + 10 eq. compound (light); Lane 11: NDM-1 + BSA + 100 eq. compound (light). […]
the dark (left) and under light irradiation (450 nm, 20 J cm-2).

[22] = tested on: E. coli empty; details: dark and light samples equivalent
[23] = target: T2, NDM-1
Protocol: In addition, intact mass spectrometry was performed on the samples prepared for SDS-PAGE.

[24] = read-out: Change in melting temperature (ΔT) of NDM-1
[25] = compound 5 μM, light 450 nm, 60 J cm^-2
[26] = compound 10 μM, light 450 nm, 60 J cm^-2
[27] = compound 20 μM, light 450 nm, 60 J cm^-2
[28] = compound 40 μM, light 450 nm, 60 J cm^-2
[29] = compound 80 μM, light 450 nm, 60 J cm^-2
[30] = compound 160 μM, light 450 nm, 60 J cm^-2

C[C@@H](O)[C@H]1C(=O)N2C(C(=O)O)=C(S[C@@H]3CN[C@H](C(=O)N(C)C)C3)[C@H](C)[C@H]12 [Meropenem, meropenem]
Accumulation ([1]; 75 μM, 10 min): not detectable | Accumulation ([2]; 75 μM, 10 min): 150 nM/OD600 | Accumulation ([2]; 75 μM, 10 min, listed as meropenem trihydrate): 0 nM/OD600

Cl.Cl.Nc1cccc(-c2cc(C(=O)O)nc(C(=O)O)c2)c1 [N1, 4-(3-amino-phenyl) dipicolinic acid]
Fold improvement in potency, light vs dark [3]: no change in potency | LD50 ([4]; 24 h): > 50 µM | LD50 ([4]; 48 h): > 50 µM | Effect on melting temperature of NDM-1 [5]: destabilize the protein in a dose-dependent manner | LD50 ([6]; 24 h): > 50 µM | LD50 ([6]; 48 h): > 50 µM | Cytotoxicity (no cytotoxicity up to) [7]: > 50 µM | Accumulation ([1]; 320 μM, 1 h): 731 nM/OD600 | Accumulation ([2]; 320 μM, 1 h): 609 nM/OD600 | IC50 ([8]; IC50(dark), dark): 13.2 µM and 13 µM | IC50 ([8]; IC50(light), light 450 nm, 60 J cm^-2): 11.1 µM | Kd [9]: 35 µM | ΔTm at 4 µM [9, 24]: -0.6 °C | ΔTm at 16 µM [9, 24]: -3.4 °C | ΔTm at 63 µM [9, 24]: -8.8 °C | LD50 ([10]; HepG2, 24 h): > 50 µM | LD50 ([10]; HepG2, 48 h): > 50 µM | Inhibition of HDAC1 [11]: do not inhibit | IC50 ([12]; IC50(dark), dark): 3.2 ± 0.08 µM | IC50 ([12]; IC50(light), light 450 nm, 20 J cm^-2): 3.1 µM | Fold improvement in NDM-1 inhibition, light vs dark [13]: no enhancement of potency | LD50 ([14]; HCT116, 24 h): > 50 µM | LD50 ([14]; HCT116, 48 h): > 50 µM | chromatographic logD [15]: -1.32 | Fold change in Meropenem MIC ([16]; compound 5 μM, dark): 0 fold | Fold change in Meropenem MIC [16, 25]: 0.66 fold | Fold change in Meropenem MIC ([16]; compound 10 μM, dark): 0 fold | Fold change in Meropenem MIC [16, 26]: 0.66 fold | Fold change in Meropenem MIC ([16]; compound 20 μM, dark): 0 fold | Fold change in Meropenem MIC [16, 27]: 1.3 fold | Fold change in Meropenem MIC ([16]; compound 40 μM, dark): 0.66 fold | Fold change in Meropenem MIC [16, 28]: 2.0 fold | Fold change in Meropenem MIC ([16]; compound 80 μM, dark): 2.6 fold | Fold change in Meropenem MIC [16, 29]: 6.6 fold | Fold change in Meropenem MIC ([16]; compound 160 μM, dark): 35 fold | Fold change in Meropenem MIC [16, 30]: 43 fold | LD50 ([17]; 24 h): > 50 µM | LD50 ([17]; 48 h): > 50 µM | LD50 ([18]; RPE1, 24 h): > 50 µM | LD50 ([18]; RPE1, 48 h): > 50 µM | LD50 ([19]; 24 h): > 50 µM | LD50 ([19]; 48 h): > 50 µM

CN[C@@H]1C[C@H]2O[C@@](C)([C@@H]1OC)n1c3ccccc3c3c4c(c5c6ccccc6n2c5c31)C(=O)NC4 [Staurosporine]
LD50 ([4]; 24 h): 0.05 µM | LD50 ([4]; 48 h): 0.02 µM | LD50 ([6]; 24 h): 0.03 µM | LD50 ([6]; 48 h): 0.01 µM | LD50 ([10]; HepG2, 24 h): 0.3 µM | LD50 ([10]; HepG2, 48 h): 0.09 µM | LD50 ([14]; HCT116, 24 h): 0.08 µM | LD50 ([14]; HCT116, 48 h): 0.02 µM | LD50 ([17]; 24 h): 0.07 µM | LD50 ([17]; 48 h): 0.01 µM | LD50 ([18]; RPE1, 24 h): 0.01 µM | LD50 ([18]; RPE1, 48 h): 0.01 µM | LD50 ([19]; 24 h): 0.05 µM | LD50 ([19]; 48 h): 0.01 µM

C=CC1=C(C)c2cc3[nH]c(cc4nc(cc5[nH]c(cc1n2)c(C)c5CCC(=O)O)C(CCC(=O)O)=C4C)c(C)c3C=C [protoporphyrin IX]
Excited state lifetime [20]: 13 ns

[Ru(2,2'-bipyridine)2(1-(4-(3-aminophenyl)pyridine-2,6-dicarboxylic acid)-imidazo[4,5,f][1,10]phenanthroline)](PF6)2 [Ru1]
Fold improvement in potency, light vs dark [3]: 30 fold | Degradation of NDM-1 vs BSA (band intensity) ([21]; dark): Both proteins were unaffected | Degradation of NDM-1 vs BSA (band intensity) ([21]; light 450 nm, 20 J cm^-2): only NDM-1 was selectively modified and degraded; also recorded: Selective degradation of NDM-1 over BSA | K d,app from DSF (ΔT vs concentration) ([5]; apparent Kd): 7.4 µM | Change in melting temperature (ΔT) of NDM-1 ([5]; compound 4 μM): –3.9 °C | Change in melting temperature (ΔT) of NDM-1 ([5]; compound 16 μM): –6.8 °C | Change in melting temperature (ΔT) of NDM-1 ([5]; compound 63 μM): –13 °C | Effect on melting temperature of NDM-1 [5]: destabilize the protein in a dose-dependent manner | MIC [22]: >160 µM | Inhibition of HDAC1 [11]: do not inhibit; also recorded: no off-target inhibition | MIC ([16]; E. coli NDM-1, dark and light samples equivalent): >160 µM | Fold change in Meropenem MIC ([16]; compound 5 μM, dark): 0 fold | Fold change in Meropenem MIC [16, 25]: 0.66 fold | Fold change in Meropenem MIC ([16]; compound 10 μM, dark): 0 fold | Fold change in Meropenem MIC [16, 26]: 0.66 fold | Fold change in Meropenem MIC ([16]; compound 20 μM, dark): 0.66 fold | Fold change in Meropenem MIC [16, 27]: 2.0 fold | Fold change in Meropenem MIC ([16]; compound 40 μM, dark): 0.66 fold | Fold change in Meropenem MIC [16, 28]: 5.3 fold | Fold change in Meropenem MIC ([16]; compound 80 μM, dark): 2.6 fold | Fold change in Meropenem MIC [16, 29]: 19 fold | Fold change in Meropenem MIC ([16]; compound 160 μM, dark): 9 fold and 9.3 fold | Fold change in Meropenem MIC [16, 30]: 53 fold | Modification of NDM-1 (intact mass) ([23]; 100 equiv, without irradiation): no change | Modification of NDM-1 (intact mass) ([23]; one equivalent, light 450 nm, 20 J cm^-2): considerable modification to the protein

porfimer sodium
Excited state lifetime [20]: 14 ns
